One assay has as its system mould. The assay is described as follows: Mould count of spent brewer's / wet distiller's grains stored at ambient temperature. In kind it is cell-based. The procedure: (§1) Samples of Portion 1 (“AR”), Portion 3 (“SO”) and Portion 5 (“SH”) were then delivered to a microbiological testing facility about 15 kilometres from the treatment laboratory. Each was tested for initial total microbial, yeast and mould counts, respectively.
(§2) Separate untreated samples were similarly stored under insect-proof screens at ambient temperature for seven days (as shown in Tables 1 and 2). During the trial period the ambient temperature ranged from 11 to 33 degrees C.
(§3) The free moisture content on the initial spent brewer's grains was determined to be 78.1% m/m. After exposure to the environment for seven days, all of the samples were tested at a South African National Accreditation System (SANAS) approved microbiological testing facility. Each was tested for total micro-organism, yeast and mould counts to determine the affect of the various treatments. A similar procedure to that described in K. A. Rosentrater et al, Food Bioprocess Technol (2008) was used for the microbiological evaluation.
(§4) At the laboratory, the samples were thoroughly mixed and initially split into a first portion (Portion 1) and a second portion (Portion 2). Portion 1 was left untreated. A sample of Portion 1, was delivered immediately to a microbiological testing facility about 15 kilometres away from the treatment laboratory and was tested for initial total microbial, yeast and mould counts, respectively. No water removal prior to treatment was done in this experiment as was the case in Example 8 wherein a similar wet material was partially dewatered by pressing and the residue treated with 10% (w/w/) calcium oxide.
Samples from Portion 2 were subjected to treatment with varying amounts of a powdered, commercially-available calcium oxide containing approximately 94% calcium oxide (CaO) as shown in Table 32. […] The samples were stored in batches (according to the calcium oxide treatment) under insect-proof screens at ambient temperature for fifty six days. Separate untreated samples were similarly stored under insect-proof screens at ambient temperature for a total of 56 days. During the trial period the ambient temperature ranged from 10 to 30 degrees C. As this period was the southern hemisphere spring/early summer, the humidity as well as ambient temperatures varied widely.
(§5) The free moisture content on the initial spent brewer's grains was determined to be 79.4% m/m. After exposure to the environment for seven days, all of the samples were tested at a South African National Accreditation System (SANAS) approved microbiological testing facility. Each was tested for total micro-organism, yeast and mould counts to determine the affect of the various treatments. A similar procedure to that described in K. A. Rosentrater et al, Food Bioprocess Technol (2008) was used for the microbiological evaluation.
(§6) Samples from each treatment were drawn every seven days. No further calcium oxide treatment or agitation took place after the initial mix. In each case the entire sample was isolated and delivered to the microbiological testing facility.
(§7) The calcium oxide treatment trial described in Example 9 wherein wet distiller's grains were treated with 2.5%, 5% and 10.0% calcium oxide, respectively, versus untreated material was repeated using lower doses of calcium oxide. In this trial the same source of wet distiller's grains (again with now partial water removal prior to treatment) was treated. Also, the same protocol as described in Example 9 was applied, but at lower doses of calcium oxide i.e. 0.5%, 1.0%, 1.5%, 2.0% and 2.5%, respectively, versus untreated material.
(§8) In this trial the same source of wet distiller's grains (again with now partial water removal prior to treatment) was treated. Also, the same protocol as described in Example 9 was applied.

The subject of a further assay is yeast. In words: Yeast count of spent brewer's / wet distiller's grains stored at ambient temperature. The class given is cell-based. The procedure:
as §1, §2, §3, §4
Samples from Portion 2 were subjected to treatment with varying amounts of a powdered, commercially-available calcium oxide containing approximately 94% calcium oxide (CaO) as shown in Table 32. The treatments varied from 2.5 to 10% (w/w) calcium oxide addition. The samples were stored in batches (according to the calcium oxide treatment) under insect-proof screens at ambient temperature for fifty six days. Separate untreated samples were similarly stored under insect-proof screens at ambient temperature for a total of 56 days. During the trial period the ambient temperature ranged from 10 to 30 degrees C. As this period was the southern hemisphere spring/early summer, the humidity as well as ambient temperatures varied widely.
as §5, §6, §7, §8

For `[Ca+2].[OH-].[OH-]` [(CaOH)2 powder], the “Mould Count” value in the assay on mould (dose 3.3% (w/w), week 0) is given as below 10 cfu/gram; with mould (dose 3.3% (w/w), week 1) it was below 10 cfu/gram; with mould (dose 3.3% (w/w), week 2) it was below 10 cfu/gram; in the assay on mould (dose 3.3% (w/w), week 3), below 10 cfu/gram; in the assay with mould (dose 3.3% (w/w), week 4), below 10 cfu/gram; in the assay on mould (dose 3.3% (w/w), week 5), below 10 cfu/gram. Moreover, the “Mould Count” value is below 10 cfu/gram in the assay on mould (dose 3.3% (w/w), week 6); below 10 cfu/gram in the assay on mould (dose 3.3% (w/w), week 7); below 10 cfu/gram with mould (dose 3.3% (w/w), week 8); below 10 cfu/gram in the assay on mould (dose 6.6% (w/w), week 0); below 10 cfu/gram in the assay with mould (dose 6.6% (w/w), week 1); below 10 cfu/gram in the assay with mould (dose 6.6% (w/w), week 2). For the same compound, the “Mould Count” value in the assay with mould (dose 6.6% (w/w), week 3) is below 10 cfu/gram; with mould (dose 6.6% (w/w), week 4), below 10 cfu/gram; in the assay with mould (dose 6.6% (w/w), week 5), below 10 cfu/gram; in the assay on mould (dose 6.6% (w/w), week 6) it was below 10 cfu/gram; with mould (dose 6.6% (w/w), week 7), below 10 cfu/gram; in the assay on mould (dose 6.6% (w/w), week 8), below 10 cfu/gram. For the same compound, the “Mould Count” value with mould (dose 6.6% (w/w), week 9) stood at 10 cfu/gram. The “Yeast Count” value was below 10 cfu/gram in the assay with yeast (dose 3.3% (w/w), week 8) and below 10 cfu/gram with yeast (dose 6.6% (w/w), week 2).

Take `[Ca+2].[O-]CC(O)CO.[O-]CC(O)CO` [Ca-DGO granules]: the “Mould Count” value in the assay on mould (dose 10% (w/w), week 0) is reported as below 10 cfu/gram; in the assay with mould (dose 10% (w/w), week 1), below 10 cfu/gram; in the assay with mould (dose 10% (w/w), week 2) it was below 10 cfu/gram; in the assay with mould (dose 10% (w/w), week 3), below 10 cfu/gram; in the assay on mould (dose 10% (w/w), week 4), below 10 cfu/gram; in the assay with mould (dose 10% (w/w), week 5), below 10 cfu/gram. The “Mould Count” value with mould (dose 10% (w/w), week 6) is on record as below 10 cfu/gram; in the assay with mould (dose 10% (w/w), week 7) it was 400 cfu/gram; in the assay on mould (dose 10% (w/w), week 8) it was 250 cfu/gram; in the assay with mould (dose 10% (w/w), week 9) it was below 10 cfu/gram; in the assay on mould (dose 15% (w/w), week 0), below 10 cfu/gram; in the assay with mould (dose 15% (w/w), week 1) it was below 10 cfu/gram. Also, the “Mould Count” value with mould (dose 15% (w/w), week 2) is below 10 cfu/gram; with mould (dose 15% (w/w), week 3) it was below 10 cfu/gram; in the assay with mould (dose 15% (w/w), week 4) it was below 10 cfu/gram; in the assay on mould (dose 15% (w/w), week 5) it was below 10 cfu/gram; in the assay on mould (dose 15% (w/w), week 6), below 10 cfu/gram; in the assay with mould (dose 15% (w/w), week 7), below 10 cfu/gram. The “Mould Count” value with mould (dose 15% (w/w), week 8) is below 10 cfu/gram; in the assay with mould (dose 15% (w/w), week 9), below 10 cfu/gram. In addition, the “Yeast Count” value in the assay with yeast (dose 10% (w/w), week 3) was below 10 cfu/gram; with yeast (dose 10% (w/w), week 4), below 10 cfu/gram; in the assay on yeast (dose 10% (w/w), week 5), 100 cfu/gram; with yeast (dose 10% (w/w), week 6), below 10 cfu/gram; in the assay with yeast (dose 10% (w/w), week 9) it was below 10 cfu/gram.

With `[Ca+2].[O-2]` [CaO powder], the “Mould Count” value is given as below 10 cfu/gram in the assay on mould (dose 5% (w/w), week 0); below 10 cfu/gram with mould (dose 5% (w/w), week 1); below 10 cfu/gram in the assay on mould (dose 5% (w/w), week 2); below 10 cfu/gram in the assay on mould (dose 5% (w/w), week 3); below 10 cfu/gram in the assay with mould (dose 5% (w/w), week 4); below 10 cfu/gram with mould (dose 5% (w/w), week 5). Further, the “Mould Count” value in the assay with mould (dose 5% (w/w), week 6) is reported as below 10 cfu/gram; with mould (dose 5% (w/w), week 7), below 10 cfu/gram; in the assay with mould (dose 5% (w/w), week 8), below 10 cfu/gram; with mould (dose 5% (w/w), week 9) it was below 10 cfu/gram; with mould (dose 10% (w/w), week 0), below 10 cfu/gram; in the assay with mould (dose 10% (w/w), week 1) it was below 10 cfu/gram. The “Mould Count” value in the assay on mould (dose 10% (w/w), week 2) was below 10 cfu/gram; with mould (dose 10% (w/w), week 3), below 10 cfu/gram; in the assay on mould (dose 10% (w/w), week 4), below 10 cfu/gram; with mould (dose 10% (w/w), week 5) it was below 10 cfu/gram; in the assay with mould (dose 10% (w/w), week 6) it was below 10 cfu/gram; in the assay with mould (dose 10% (w/w), week 7), 3500 cfu/gram. For the same compound, the “Mould Count” value in the assay with mould (dose 10% (w/w), week 8) is recorded as below 10 cfu/gram; in the assay on mould (dose 10% (w/w), week 9), below 10 cfu/gram. The “Yeast Count” value is below 10 cfu/gram with yeast (dose 10% (w/w), week 3); below 10 cfu/gram in the assay on yeast (dose 10% (w/w), week 4); below 10 cfu/gram in the assay with yeast (dose 10% (w/w), week 5); below 10 cfu/gram with yeast (dose 10% (w/w), week 6); below 10 cfu/gram with yeast (dose 10% (w/w), week 9).

Turning to `[Ca+2].[O-]CC(O)CO.[O-]CC(O)CO` [calcium diglyceroxide], the “Mould Count” value is on record as 10 cfu/gram in the assay with mould (10% Ca-DGO (w/w) granules, week 1); below 10 cfu/gram in the assay with mould (10% Ca-DGO (w/w) granules, week 2); below 10 cfu/gram in the assay with mould (10% Ca-DGO (w/w) granules, week 3); below 10 cfu/gram in the assay on mould (10% Ca-DGO (w/w) granules, week 4); below 10 cfu/gram in the assay on mould (10% Ca-DGO (w/w) granules, week 5); below 10 cfu/gram in the assay on mould (10% Ca-DGO (w/w) powder, week 1). Moreover, the “Mould Count” value in the assay on mould (10% Ca-DGO (w/w) powder, week 2) is recorded as below 10 cfu/gram; with mould (10% Ca-DGO (w/w) powder, week 3) it was below 10 cfu/gram; in the assay with mould (10% Ca-DGO (w/w) powder, week 4) it was 310 cfu/gram; in the assay with mould (10% Ca-DGO (w/w) powder, week 5), 1020 cfu/gram; with mould (20% Ca-DGO (w/w) powder, week 1), 10 cfu/gram; in the assay on mould (20% Ca-DGO (w/w) powder, week 2) it was 10 cfu/gram. Also, the “Mould Count” value with mould (20% Ca-DGO (w/w) powder, week 3) was determined as 10 cfu/gram; in the assay on mould (20% Ca-DGO (w/w) powder, week 4), 10 cfu/gram; with mould (20% Ca-DGO (w/w) powder, week 5) it was 10 cfu/gram; in the assay with mould (40% Ca-DGO (w/w) powder, week 1) it was 10 cfu/gram; in the assay on mould (40% Ca-DGO (w/w) powder, week 2), 10 cfu/gram; with mould (40% Ca-DGO (w/w) powder, week 3) it was 10 cfu/gram. For the same compound, the “Mould Count” value with mould (40% Ca-DGO (w/w) powder, week 4) came to 10 cfu/gram; in the assay on mould (40% Ca-DGO (w/w) powder, week 5) it was 10 cfu/gram.

These data come from patent US20120009280A1, “METHOD OF REDUCING THE RATE OF DEGRADATION OF A BIOLOGICAL MATERIAL” (Bio-Energy Ingredients Limited, priority 2009, published 2012).
